Measurements from patent publication US12510533B2, “Methods for treating multiple myeloma and the use of companion biomarkers for 4-(4-(4-(((2-(2,6-dioxopiperidin-3-yl)-1-oxoisoindolin-4-yl)oxy)methyl)benzyl)piperazin-1-yl)-3-fluorobenzonitrile” (Celgene Corporation, priority 2018, dated 2025).

Columns and labels:
sBCMA = test: Phase 1 study, sBCMA in serum by ELISA; format: in vivo, human; details: one subject; with dexamethasone
Method: (§1) This is an open-label, multi-center, international, Phase 1 study to assess the safety, PK/PD and preliminary efficacy of Compound 2 in combination with dexamethasone in subjects with RRMM.
Serum samples were taken before and during Compound 2 treatment at specified time points. The expression of sBCMA was measured by an ELISA assay.

[1] = system: H929-1051 and OPM2-P10 cells; test: Apoptosis induction in H929-1051 and OPM2-P10 multiple myeloma cells; format: cell-based, human; details: 15 minute or 6 hour transient exposure
Method: FIG. 10 illustrates that continuous, but not transient, exposure to Compound 2 induced apoptosis in multiple myeloma cells. Apoptosis induction by Compound 2 treatment in a lenalidomide-resistant MM cell model (H929-1051 [top row] and a pomalidomide-resistant MM cell model OPM2-P10 [bottom row]) is presented.
The effect of Aiolos and Ikaros degradation on induction of apoptosis was also evaluated. The nearly complete and prolonged substrate suppression observed upon continuous exposure of Compound 2 coincided with apoptosis induction in MM cells (FIG. 10). A continuous single exposure to 0.01 and 0.1 μM Compound 2 led to induction of apoptosis in H929-1051 and OPM2-P10 cells (within 50 to 75 hours) (FIG. 10).

Ikaros = Ikaros (Homo sapiens, UniProt Q13422+Q96SW2); test: Phase 1 study, Ikaros expression by flow cytometry in CD3+ T cells; format: in vivo; parameters: The effects of Compound 2 on the degradation of Ikaros in CD4+ and CD8+ T cells; endogenous in cells; CD34+ bone marrow cells of healthy donors; CD3+ T cells of multiple myeloma patients; details: QD days 1-10, 15-24/28 and BID days 1-3, 15-17/28; recovered during dosing interruptions
Method: FIG. 25A and FIG. 25B illustrate that Compound 2 induced Ikaros degradation in CD3+ T cells from peripheral blood of relapsed/refractory multiple myeloma patients after (FIG. 25A) the once daily (QD) 1-10, 15-24/28 schedule, or (FIG. 25B) the twice daily (BID) 1-3, 15-17/28 schedule.
Ikaros expression was measured by flow cytometry in CD3+ T cells before and during Compound 2 treatment in two different dosing schedules (QD administration on days 1 to 10 and days 15 to 24 of a 28 day cycle, and BID administration on days 1 to 3 and days 15 to 17 of a 28 day cycle).

NCI-H929 = test: Tumor cell lysis by anti-CD3-activated, compound-treated PBMCs, co-culture with untreated NCI-H929; format: cell-based; details: Homo sapiens; lenalidomide-sensitive NCI-H929, untreated; 24-hour co-culture
[2] = system: relapsed and refractory multiple myeloma; test: Phase 1 study, response to treatment (IMWG criteria); format: in vivo, human; details: subjects with >80% decrease in sBCMA or sFLC
H929-1051 = test: Apoptosis by Caspase-Glo 3/7 normalized to CellTiter-Glo in H929-1051 cells, dexamethasone alone or with compound; format: cell-based, human; details: 72 hours; Compound 2 0.001, 0.01 or 0.1 μM
Method: Dexamethasone was dispensed at 20 concentrations, using an acoustic dispenser. The plates were sealed and stored at room temperature for the next day. […] Cells were dispensed into the assay plates with a Multidrop dispenser and duplicate plates were made for the assay. Measurement of apoptosis was made at 72 hours post-compound treatment using a Caspase-Glo 3/7 and CellTiter-Glo Assays. The Caspase-Glo 3/7 luminescence was normalized to the CellTiter-Glo luminescence to account for differences in cell number. The fold change of the treated sample was calculated as follows: normalized caspase of treated sample/average of normalized DMSO control.

sFLC = test: Phase 1 study, serum free light chain (sFLC); format: in vivo, human; details: two subjects; during the first cycle of treatment
From the text: as §1
Serum samples were taken before and during Compound 2 treatment at specified time points. Serum free light chain (sFLC) can be used as an efficacy measurement in multiple myeloma. The short half-life of sFLC provides an opportunity to follow the dynamic effect of compound treatment on disease burden. […] The extent of decrease from baseline and duration of the effect may predict response to treatment with Compound 2.

Aiolos = biological target: T1, Aiolos (Homo sapiens, UniProt Q96SW2+Q9UKT9); test: Phase 1 study, Aiolos expression by flow cytometry in CD3+ T cells; format: in vivo; details: QD days 1-10, 15-24/28 and BID days 1-3, 15-17/28; recovered during dosing interruptions
T1 construct: expressed in transfected cells; host or cells: DF15 multiple myeloma cells
Method: FIG. 24A and FIG. 24B illustrate that Compound 2 induces Aiolos degradation in CD3+ T cells from peripheral blood of relapsed/refractory multiple myeloma patients after (FIG. 24A) the once daily (QD) 1-10, 15-24/28 schedule, or (FIG. 24B) the twice daily (BID) 1-3, 15-17/28 schedule.
Aiolos expression was measured by flow cytometry in CD3+ T cells before and during Compound 2 treatment in two different dosing schedules (QD administration on days 1 to 10 and days 15 to 24 of a 28 day cycle, and BID administration on days 1 to 3 and days 15 to 17 of a 28 day cycle).

IL-2 = IL-2 secretion from anti-CD3 antibody-stimulated healthy donor PBMCs; format: cell-based, human
Method: The immunomodulatory activity of Compound 2 on T cell receptor (TCR)-activated healthy PBMCs was assessed.
The effect of Compound 2 in combination with different concentrations of dexamethasone on the ability of PBMCs to produce IL-2 was explored. […]

T1 sequence (Q9UKT9 whole entry): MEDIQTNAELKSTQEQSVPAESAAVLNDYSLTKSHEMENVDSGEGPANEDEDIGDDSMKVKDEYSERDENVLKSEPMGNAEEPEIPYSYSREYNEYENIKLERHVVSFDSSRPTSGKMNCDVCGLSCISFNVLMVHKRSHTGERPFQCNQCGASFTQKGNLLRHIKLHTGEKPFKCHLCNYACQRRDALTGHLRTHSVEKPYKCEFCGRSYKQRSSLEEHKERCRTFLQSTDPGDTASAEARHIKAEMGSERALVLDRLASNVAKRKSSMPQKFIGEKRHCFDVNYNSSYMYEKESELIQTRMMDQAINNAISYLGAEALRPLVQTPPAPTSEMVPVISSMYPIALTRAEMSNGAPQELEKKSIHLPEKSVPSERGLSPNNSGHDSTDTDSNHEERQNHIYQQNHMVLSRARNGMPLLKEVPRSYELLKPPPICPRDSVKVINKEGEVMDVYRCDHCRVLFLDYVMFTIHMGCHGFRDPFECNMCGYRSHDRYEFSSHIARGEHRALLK
T1 sequence (Q96SW2 whole entry): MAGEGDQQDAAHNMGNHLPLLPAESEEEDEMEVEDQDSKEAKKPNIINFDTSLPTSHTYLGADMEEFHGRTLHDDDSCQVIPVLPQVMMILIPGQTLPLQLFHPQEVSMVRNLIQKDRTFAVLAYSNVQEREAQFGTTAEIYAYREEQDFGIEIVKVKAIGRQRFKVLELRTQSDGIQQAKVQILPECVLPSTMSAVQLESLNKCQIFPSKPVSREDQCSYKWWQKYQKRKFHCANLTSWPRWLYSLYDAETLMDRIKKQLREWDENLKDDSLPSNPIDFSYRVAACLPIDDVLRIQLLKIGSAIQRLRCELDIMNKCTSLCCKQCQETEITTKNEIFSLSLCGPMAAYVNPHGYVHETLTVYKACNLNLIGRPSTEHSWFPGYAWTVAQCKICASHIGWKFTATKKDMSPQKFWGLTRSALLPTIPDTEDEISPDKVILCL
T1 sequence (Q16531 2-1140, further chain): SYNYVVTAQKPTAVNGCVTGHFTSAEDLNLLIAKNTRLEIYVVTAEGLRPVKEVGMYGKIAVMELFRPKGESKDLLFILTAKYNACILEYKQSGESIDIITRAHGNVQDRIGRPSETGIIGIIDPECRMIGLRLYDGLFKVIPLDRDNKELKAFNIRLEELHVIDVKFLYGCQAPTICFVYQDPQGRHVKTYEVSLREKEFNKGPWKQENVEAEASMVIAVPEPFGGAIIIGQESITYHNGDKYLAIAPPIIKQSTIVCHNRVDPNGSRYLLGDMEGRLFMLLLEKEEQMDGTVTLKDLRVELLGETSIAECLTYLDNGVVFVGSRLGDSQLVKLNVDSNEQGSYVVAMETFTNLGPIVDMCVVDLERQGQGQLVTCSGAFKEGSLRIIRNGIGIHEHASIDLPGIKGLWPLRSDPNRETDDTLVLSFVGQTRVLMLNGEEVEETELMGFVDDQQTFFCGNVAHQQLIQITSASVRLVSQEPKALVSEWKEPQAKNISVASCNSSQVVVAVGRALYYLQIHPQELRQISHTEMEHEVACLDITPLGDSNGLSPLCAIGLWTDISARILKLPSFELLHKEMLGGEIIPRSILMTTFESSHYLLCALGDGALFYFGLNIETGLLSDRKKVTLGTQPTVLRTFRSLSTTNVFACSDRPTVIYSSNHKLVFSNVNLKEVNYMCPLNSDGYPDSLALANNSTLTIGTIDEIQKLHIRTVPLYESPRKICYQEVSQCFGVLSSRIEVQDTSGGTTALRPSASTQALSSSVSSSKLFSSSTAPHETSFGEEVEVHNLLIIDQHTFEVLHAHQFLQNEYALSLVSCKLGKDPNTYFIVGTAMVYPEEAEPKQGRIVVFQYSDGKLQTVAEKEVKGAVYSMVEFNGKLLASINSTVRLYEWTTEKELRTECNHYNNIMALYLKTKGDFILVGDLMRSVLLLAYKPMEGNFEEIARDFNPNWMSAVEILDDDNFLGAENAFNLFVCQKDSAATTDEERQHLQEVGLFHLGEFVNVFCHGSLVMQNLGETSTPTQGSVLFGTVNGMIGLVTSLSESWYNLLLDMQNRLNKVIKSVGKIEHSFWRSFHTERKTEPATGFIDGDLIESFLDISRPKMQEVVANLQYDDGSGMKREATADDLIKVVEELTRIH
Chain of Ikaros (Q13422 whole entry): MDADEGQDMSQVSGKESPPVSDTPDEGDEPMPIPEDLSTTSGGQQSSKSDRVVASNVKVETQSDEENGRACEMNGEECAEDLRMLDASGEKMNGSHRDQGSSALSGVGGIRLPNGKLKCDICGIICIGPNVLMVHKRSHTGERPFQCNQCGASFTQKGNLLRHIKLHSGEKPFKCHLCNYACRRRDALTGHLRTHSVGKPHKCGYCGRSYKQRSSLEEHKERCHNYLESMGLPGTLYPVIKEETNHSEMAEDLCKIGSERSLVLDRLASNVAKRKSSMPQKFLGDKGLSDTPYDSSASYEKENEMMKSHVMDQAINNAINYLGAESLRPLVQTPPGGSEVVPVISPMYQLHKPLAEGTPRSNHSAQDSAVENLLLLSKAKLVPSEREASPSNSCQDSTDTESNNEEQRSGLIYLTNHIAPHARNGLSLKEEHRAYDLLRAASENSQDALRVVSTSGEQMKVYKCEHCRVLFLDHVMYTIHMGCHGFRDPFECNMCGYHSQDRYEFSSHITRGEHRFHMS
Chain of Ikaros (Q16531 2-1140, further chain): as the sequence (Q16531 2-1140, further chain) above
Chain of Ikaros (Q96SW2 whole entry): as the sequence (Q96SW2 whole entry) above

Question: With `N#Cc1ccc(N2CCN(Cc3ccc(COc4cccc5c4CN([C@H]4CCC(=O)NC4=O)C5=O)cc3)CC2)c(F)c1` [Compound 2, (S)-4-(4-(4-(((2-(2,6-dioxopiperidin-3-yl)-1-oxoisoindolin-4-yl)oxy)methyl)benzyl)piperazin-1-yl)-3-fluorobenzonitrile] as the compound, how does the “decrease in sBCMA from baseline” value (sBCMA) read?
Answer: Its value is over 80%.

Question: And the “effect of transient exposure on apoptosis” value [1]?
Answer: The value was “precluded the induction of apoptosis”.

Question: And the “Ikaros degradation in CD3+ T cells” value (Ikaros)?
Answer: Its value is “dose dependent”.

Question: And the IC50 (NCI-H929)?
Answer: Its IC50 is 5 nM.

Question: What about the response to treatment [2] of the same compound?
Answer: The response to treatment was “VGPR and PR”.

Question: And the “shift of the onset of dexamethasone activity in the presence of Compound 2” value (H929-1051)?
Answer: The value was 1 log.

Question: What about the “decrease in sFLC” value (sFLC) of the same compound?
Answer: Its value is over 80%.

Question: And the “Aiolos degradation in CD3+ T cells” value (Aiolos)?
Answer: The value was “dose dependent”.

Question: And the “peak IL-2 production above the vehicle control” value (IL-2; 24 hours)?
Answer: The value was 5.5 fold.

Question: And the EC50 (IL-2; Homo sapiens, PBMC, 72 h, read-out: IL-2 secretion, mean half-maximal effective concentration (EC50))?
Answer: Its EC50 is 0.014 nM.

Question: What about the “Compound 2 concentration at peak IL-2 response” value (IL-2; in combination with 10 nM dexamethasone) of the same compound?
Answer: The value was 10 pM.

Question: And the “IL-2 induction above the vehicle control” value (IL-2; in combination with 10 nM dexamethasone, 4 donors, 72 hours)?
Answer: The value was “at least 10 fold”.

Question: What about the IL-2 induction (IL-2; in combination with 100 nM dexamethasone) of the same compound?
Answer: The IL-2 induction was “little induction of IL-2 above baseline”.
